According to patent US6753345B2, “7-hexanolytaxol and methods for preparing the same” (Hauser, Inc., priority 1998, dated 2004):

Assays:
[1] = test system: 786-0; experiment: SRB cytotoxicity screening assay (Renal Cancer)
[2] = test system: CCRF-CEM cells; experiment: G2/M arrest; assay type: cell-based; conditions: minimum concentration that results in 60% of CCRF-CEM cells to arrest in G2-M
[3] = test system: UACC-257; experiment: SRB cytotoxicity screening assay (Melanoma)
[4] = test system: EKVX; experiment: SRB cytotoxicity screening assay (Non-Small Cell Lung Cancer); conditions: Homo sapiens, EKVX, 48 h, read-out: Log10 LC50 (converted)
[5] = test system: HL-60(TB); experiment: cells; conditions: Homo sapiens, HL-60, 48 h, read-out: Log10 GI50 (converted)
[6] = test system: SN12C; experiment: SRB cytotoxicity screening assay (Renal Cancer); conditions: Homo sapiens, SN12C, 48 h
[7] = test system: SR; experiment: SRB cytotoxicity screening assay (Leukemia)
[8] = test system: HOP-62; experiment: SRB cytotoxicity screening assay (Non-Small Cell Lung Cancer)
[9] = test system: COLO 205; experiment: SRB cytotoxicity screening assay (Colon Cancer); conditions: Homo sapiens, COLO 205, 48 h, read-out: Log10 GI50 (converted)
[10] = test system: OVCAR-6; experiment: SRB cytotoxicity screening assay (Ovarian); conditions: 48 h
[11] = test system: cell line panel (60 lines, nine disease-related subpanels); experiment: SRB cytotoxicity screening assay, whole cell line panel (mean values)
[12] = test system: NCI-H226; experiment: SRB cytotoxicity screening assay (Non-Small Cell Lung Cancer); conditions: Homo sapiens, NCI-H226, 48 h, read-out: Log10 LC50 (converted)
[13] = test system: HCT-116; experiment: SRB cytotoxicity screening assay (Colon Cancer); conditions: HCT-116 (Colon Cancer); PG=0; 48 hour incubation
[14] = test system: A498; experiment: SRB cytotoxicity screening assay (Renal Cancer); conditions: Homo sapiens, A498, 48 h
[15] = test system: OVCAR-5; experiment: SRB cytotoxicity screening assay (Ovarian)
[16] = test system: U251; experiment: SRB cytotoxicity screening assay (CNS Cancer)
[17] = test system: LOX-IMVI; experiment: cells; conditions: Homo sapiens, 48 h, read-out: Log10 GI50 (converted)
[18] = test system: IGR-OV1; experiment: SRB cytotoxicity screening assay (Ovarian)
[19] = test system: SK-MEL-2; experiment: SRB cytotoxicity screening assay (Melanoma); conditions: Homo sapiens, SK-MEL-2, 48 h, read-out: Log10 GI50 (converted)
[20] = test system: UACC-62; experiment: SRB cytotoxicity screening assay (Melanoma)
[21] = test system: K-562; experiment: SRB cytotoxicity screening assay (Leukemia)
[22] = test system: OVCAR-4; experiment: SRB cytotoxicity screening assay (Ovarian)
[23] = test system: NCI-H522; experiment: SRB cytotoxicity screening assay (Non-Small Cell Lung Cancer); conditions: NCI-H522 (Non-Small Cell Lung Cancer); PG=0; 48 hour incubation
[24] = test system: M14; experiment: SRB cytotoxicity screening assay (Melanoma)
[25] = test system: HL-60(TB); conditions: HL-60(TB) (Leukemia); PG=0; 48 hour incubation
[26] = read-out: Log10 GI50 (converted)
[27] = read-out: Log10 LC50 (converted)

CC(=O)O[C@H]1C(=O)[C@@]2(C)[C@H]([C@H](OC(=O)c3ccccc3)[C@]3(O)C[C@H](OC(=O)[C@H](O)[C@@H](NC(=O)c4ccccc4)c4ccccc4)C(C)=C1C3(C)C)[C@]1(OC(C)=O)CO[C@@H]1C[C@@H]2O [Paclitaxel, paclitaxel, reference compound]
Log10 TGI ([1]; 786-0 (Renal Cancer), PG=0, 48 hour incubation): >−4.00 molar | GI50 ([1]; Homo sapiens, 786-0, 48 h, read-out: Log10 GI50 (converted)): 9.77 nM | CC50 ([1]; Homo sapiens, 786-0, 48 h, read-out: Log10 LC50 (converted)): > 100000 nM | G2/M arrest MED [2]: 0.025 µg/mL | GI50 ([3]; Homo sapiens, UACC-257, 48 h, read-out: Log10 GI50 (converted)): 0.0501 nM | CC50 ([3]; Homo sapiens, UACC-257, 48 h, read-out: Log10 LC50 (converted)): 93300 nM | Log10 TGI ([3]; UACC-257 (Melanoma), PG=0, 48 hour incubation): −4.52 molar | CC50 [4]: > 100000 nM | GI50 [5]: 0.00269 nM | GI50 [6, 26]: 0.295 nM | CC50 [6, 27]: > 100000 nM | GI50 ([7]; Homo sapiens, SR, 48 h, read-out: Log10 GI50 (converted)): 4.57 nM | CC50 ([7]; Homo sapiens, SR, 48 h, read-out: Log10 LC50 (converted)): > 100000 nM | Log10 TGI ([7]; SR (Leukemia), PG=0, 48 hour incubation): >−4.00 molar | Log10 TGI ([8]; HOP-62 (Non-Small Cell Lung Cancer), PG=0, 48 hour incubation): −4.80 molar | GI50 ([8]; Homo sapiens, HOP-62, 48 h, read-out: Log10 GI50 (converted)): 0.214 nM | CC50 ([8]; Homo sapiens, HOP-62, 48 h, read-out: Log10 LC50 (converted)): 89100 nM | GI50 [9]: 0.00851 nM | GI50 [10, 26]: 0.0178 nM | CC50 [10, 27]: > 100000 nM | Log10 TGI, MG_MID ([11]; mean value over the cell line panel): −4.54 molar | GI50 ([11]; read-out: Log10 GI50, MG_MID (converted)): 0.0708 nM | CC50 ([11]; read-out: Log10 LC50, MG_MID (converted)): 87100 nM | CC50 [12]: > 100000 nM | Log10 TGI [13]: −4.82 molar | GI50 [14, 26]: 72.4 nM | CC50 [14, 27]: 74100 nM | GI50 ([15]; Homo sapiens, OVCAR-5, 48 h, read-out: Log10 GI50 (converted)): 0.417 nM | CC50 ([15]; Homo sapiens, OVCAR-5, 48 h, read-out: Log10 LC50 (converted)): > 100000 nM | Log10 TGI ([15]; OVCAR-5 (Ovarian), PG=0, 48 hour incubation): −4.92 molar | GI50 ([16]; Homo sapiens, U-251, 48 h, read-out: Log10 GI50 (converted)): 0.00513 nM | Log10 TGI ([16]; U251 (CNS Cancer), PG=0, 48 hour incubation): −4.32 molar | GI50 [17]: 0.00158 nM | GI50 ([18]; Homo sapiens, IGROV-1, 48 h, read-out: Log10 GI50 (converted)): 2.45 nM | Log10 TGI ([18]; IGR-OV1 (Ovarian), PG=0, 48 hour incubation): −4.19 molar | GI50 [19]: 0.295 nM | GI50 ([20]; Homo sapiens, UACC-62, 48 h, read-out: Log10 GI50 (converted)): 0.0347 nM | Log10 TGI ([20]; UACC-62 (Melanoma), PG=0, 48 hour incubation): −4.71 molar | GI50 ([21]; Homo sapiens, K562, 48 h, read-out: Log10 GI50 (converted)): 0.0148 nM | CC50 ([21]; Homo sapiens, K562, 48 h, read-out: Log10 LC50 (converted)): > 100000 nM | Log10 TGI ([21]; K-562 (Leukemia), PG=0, 48 hour incubation): >−4.00 molar | GI50 ([22]; Homo sapiens, OVCAR-4, 48 h, read-out: Log10 GI50 (converted)): 1580 nM | Log10 TGI ([22]; OVCAR-4 (Ovarian), PG=0, 48 hour incubation): −4.19 molar | Log10 TGI [23]: −11.20 molar | GI50 ([24]; Homo sapiens, M14, 48 h, read-out: Log10 GI50 (converted)): 0.00186 nM | Log10 TGI ([24]; M14 (Melanoma), PG=0, 48 hour incubation): −4.62 molar | Log10 TGI [25]: >−4.53 molar
